Marks after values point to notes of the source that are not given here.
Columns and labels:
[1] = Cell viability (MTT) assay of flavonoids in Caco-2 cells; assay type: cell-based; conditions: human
Description: The cytotoxicity of flavonoids and colchicine was evaluated by MTT assay. The cells were grown in 96-well plates at a density of 1 × 10^4 cells/well. After incubation with 40 μM flavonoid for 24 h, the cells were further incubated with an MTT solution (0.5 mg/mL) for 4 h at 37 °C. Finally, after removal of the supernatant, 150 μL dimethyl sulphoxide was added to each well to dissolve crystallized MTT. Absorbance was read at 570 nm with a multiskan spectrum microplate reader (Thermo Labsystems, Waltham, MA, USA). The percentage cell viability relative to that of the control cells was used as the cytotoxicity measure.

[2] = Permeability (bidirectional transport) of flavonoids in Caco-2 cell monolayers; assay type: in vitro ADME; conditions: human; for Papp A→B at 60 min, 40 μM: Caco-2, apical to basolateral; for Papp A→B at 60 min, 40 μM / Papp B→A at 60 min, 40 μM: incubation 60 min, 37 °C, D-Hank's pH 7.4, mean ± SD, n = 3–6; for Papp B→A at 60 min, 40 μM: Caco-2, basolateral to apical; for Papp at 1 h, 40 μM: Caco-2 monolayer
Description: Caco-2 cells were cultured in MEM supplemented with 10% FBS, 1% NEAA, penicillin (100 U/mL) and streptomycin (100 μg/mL) in an atmosphere of 5% CO2 and 90% relative humidity at 37 °C. All cells used in this study were between passages 35 and 45 [16].
Caco-2 cells were seeded at a density of about 8 × 10^4 cells/cm^2 on a 12 wells Millicell hanging insert and left to grow for 19–21 days to reach confluence. Culture medium was replaced every other day for 14 days and daily thereafter. The integrity and transport ability of the Caco-2 cells monolayer were examined by measuring the trans-epithelial electrical resistance (TEER) with a Millicell voltammeter (Millicell ERS-2, Merck Millipore, Billerica, MA, USA) and running standard assays using Lucifer yellow CH as paracellular flux marker. […] Differentiation of Caco-2 cells was checked after 4 and 12 days by determining the activity of alkaline phosphatase with an assay kit (Nanjing Jiancheng Bioengineering Institute, Nanjing, China) and after 21 days transmission electron microscopy was performed on Caco-2 monolayer to evaluate differentiation.
The Caco-2 cell monolayer was washed with D-Hank’s buffer (pH 7.4). Then, the flavonoid (40 μM) was added to either the apical (AP, 0.4 mL) or basolateral (BL, 1.95 mL) side, while the receiving chamber contained the corresponding volume of D-Hank’s buffer and incubated for 1 h at 37 °C. Solutions from both AP and BL sides of Caco-2 cell monolayer were collected and immediately frozen, lyophilized and preserved at −80 °C for high performance liquid chromatography (HPLC) analysis. Papp was calculated from Equation (1), where ΔQ/Δt is the rate of the flavonoid on the accepting chamber (μM/s), A is the surface area of the hanging insert (cm^2) and C0 is the initial concentration of tested flavonoid in donating chamber (μM/mL).(1) Papp=ΔQ/Δt/AC0

[3] = system: Caco-2 cell monolayer; assay: Cellular accumulation (CA) of flavonoids in Caco-2 cell monolayer; conditions: for CA A to B: accumulated in cell monolayer after transport apical to basolateral; for CA A to B / CA B to A: 40 μM, 1 h, normalized to cellular protein, mean ± SD, n = 3; for CA B to A: accumulated in cell monolayer after transport basolateral to apical; for CA: both sides (CA A to B and CA B to A)
[4] = Caco-2, pH 7.4, as stated in text, direction not specified (bilateral)

SMILES	viability at 24 h, 40 μM [1]	Papp A→B at 60 min, 40 μM [2]	Papp B→A at 60 min, 40 μM [2]	Papp at 1 h, 40 μM ([2]; pH 7.4, direction not specified (bilateral))	CA A to B [3]	CA B to A [3]	CA [3]	Papp at 1 h, 40 μM [2, 4]
O=c1c(-c2ccc(O)cc2)coc2cc(O)cc(O)c12 [Compound 27, Genistein]	103 ± 3.37%	31.1 ± 2.13 ×10⁻⁶ cm/s	30.5 ± 2.13 ×10⁻⁶ cm/s	> 30 ×10⁻⁶ cm/s	1.415 ± 0.276 µmol/g	2.777 ± 0.220 ^b μmol/g	< 5 µmol/g	–
O=c1c(O)c(-c2ccc(O)cc2)oc2cc(O)cc(O)c12 [Compound 12, Kaempferol]	100 ± 4.53%	6.68 ± 0.93 ×10⁻⁶ cm/s	5.92 ± 0.45 ×10⁻⁶ cm/s	–	8.368 ± 1.039 µmol/g	11.887 ± 1.247 ^a μmol/g	> 6 µmol/g	–
COc1ccc(-c2coc3cc(O)ccc3c2=O)cc1 [Compound 23, Formononetin]	94.6 ± 3.6%	17.4 ± 1.78 ×10⁻⁶ cm/s	18.3 ± 1.83 ×10⁻⁶ cm/s	–	3.819 ± 1.320 µmol/g	4.842 ± 0.424 µmol/g	–	> 10 ×10⁻⁶ cm/s
COc1ccc(-c2coc3cc(O)cc(O)c3c2=O)cc1 [Compound 28, Biochanin A]	106 ± 6.44%	11.1 ± 0.51 ×10⁻⁶ cm/s	10.7 ± 2.98 ×10⁻⁶ cm/s	–	6.766 ± 1.583 µmol/g	14.087 ± 1.287 ^b μmol/g	> 6 µmol/g	> 10 ×10⁻⁶ cm/s
COc1c(O)cc(O)c2c(=O)cc(-c3ccccc3)oc12 [Compound 3, Wogonin]	97.7 ± 8.39%	16.4 ± 1.2 ×10⁻⁶ cm/s	18.1 ± 1.62 ×10⁻⁶ cm/s	–	1.038 ± 0.212 µmol/g	1.586 ± 0.045 µmol/g	–	–
COc1ccc(-c2oc3cc(O)cc(O)c3c(=O)c2O)cc1 [Compound 13, Kaempferide]	102 ± 6.15%	0.35 ± 0.06 ×10⁻⁶ cm/s	0.23 ± 0.03 ×10⁻⁶ cm/s	–	2.746 ± 0.478 ^b μmol/g	0.496 ± 0.249 µmol/g	–	–
O=C1c2c(O)cc(O)cc2OC(c2ccc(O)c(O)c2)C1O (centres unmarked) [Compound 22, Taxifolin]	99.5 ± 2%	6.32 ± 1.16 ×10⁻⁶ cm/s	26.1 ± 2.08 ×10⁻⁶ cm/s	–	–	–	not detected	> 20 ×10⁻⁶ cm/s
O=c1c(-c2ccc(O)cc2)coc2cc(O)ccc12 [Compound 26, Daidzein]	105 ± 4.56%	33.9 ± 3.55 ×10⁻⁶ cm/s	42.2 ± 3.11 ×10⁻⁶ cm/s	–	0.500 ± 0.104 µmol/g	1.236 ± 0.117 ^b μmol/g	–	> 30 ×10⁻⁶ cm/s
O=c1cc(-c2ccccc2)oc2cc(O)c(O)c(O)c12 [Compound 4, Baicalein]	96.7 ± 6.31%	1.95 ± 0.53 ×10⁻⁶ cm/s	0.71 ± 0.21 ×10⁻⁶ cm/s	–	1.182 ± 0.341 µmol/g	3.272 ± 0.445 ^a μmol/g	–	< 2 ×10⁻⁶ cm/s
O=c1c(O)c(-c2ccccc2)oc2cc(O)cc(O)c12 [Compound 9, Galangin]	106 ± 7.79%	1.94 ± 0.41 ×10⁻⁶ cm/s	1.75 ± 0.44 ×10⁻⁶ cm/s	–	3.780 ± 0.711 µmol/g	9.286 ± 0.859 ^b μmol/g	–	–
COc1cc2c(=O)c(-c3ccc(O)cc3)coc2cc1O [Compound 25, Glycitein]	98.3 ± 4.6%	12.4 ± 0.91 ×10⁻⁶ cm/s	6.23 ± 0.46 ×10⁻⁶ cm/s	–	1.821 ± 0.774 ^a μmol/g	0.158 ± 0.021 µmol/g	–	> 10 ×10⁻⁶ cm/s
COc1cc(-c2oc3cc(O)cc(O)c3c(=O)c2O)ccc1O [Compound 15, Isorhamnetin]	93.6 ± 1.22%	1.09 ± 0.02 ×10⁻⁶ cm/s	0.9 ± 0.42 ×10⁻⁶ cm/s	–	0.332 ± 0.066 ^a μmol/g	0.076 ± 0.048 µmol/g	–	–
O=C(/C=C/c1ccc(O)cc1)c1ccc(O)cc1O [Compound 29, Isoliquiritigenin]	99.2 ± 7.94%	13.8 ± 0.73 ×10⁻⁶ cm/s	20 ± 1.29 ×10⁻⁶ cm/s	–	4.393 ± 0.790 µmol/g	8.804 ± 1.576 ^a μmol/g	–	–
